Calls of active or inactive are those of the source. No cut-off for these calls is given here.
Key:
[1] = Cytotoxicity against mouse RAW264.7 cells incubated for 24 hrs by MTT assay; assay type: toxicity, cell-based
RAW264.7 [2] = experiment: Anti-inflammatory activity against LPS-induced mouse RAW264.7 cells assessed as inhibition of NO production at 20 uM preincubated for 1 hrs followed by LPS addition and measured after 24 hrs by Griess reagent-based microplate reader analysis relative to control; assay type: functional; settings: time 25 hrs
Mus musculus [3] = experiment: Anti-inflammatory activity in TPA-induced male Kunming mouse model of ear edema assessed as reduction in ear thickness at 1.0 mg, TOP pre-administered via ear for 30 mins followed by TPA addition and measured after 6 hrs; assay type: functional, organism-based; settings: time 6.5 hrs
[4] = Toxicity in male Sprague-Dawley rat assessed as average number of ulcers at 100 mg/kg, po administrated for 3 days and measured after 2 hrs post last dose; assay type: organism-based; settings: in vivo, 74 h
[5] = Toxicity in male Sprague-Dawley rat assessed as ulcer score at 100 mg/kg, po administrated for 3 days and measured after 2 hrs post last dose; assay type: organism-based; settings: in vivo, 74 h
Mus musculus [6] = experiment: Anti-inflammatory activity in TPA-induced male Kunming mouse model of ear edema assessed as reduction in ear weight at 1.0 mg, TOP pre-administered via ear for 30 mins followed by TPA addition and measured after 6 hrs; assay type: functional, organism-based; settings: time 6.5 hrs
[7] = Toxicity in Sprague-Dawley rat assessed as ulcer index at 100 mg/kg, po administrated for 3 days and measured after 2 hrs post last dose; assay type: organism-based; settings: in vivo, 74 h
Mus musculus [8] = experiment: Anti-inflammatory activity in TPA-induced male Kunming mouse model of ear edema assessed as reduction in ear erythema at 1.0 mg, TOP pre-administered via ear for 30 mins followed by TPA addition and measured after 6 hrs; assay type: functional, organism-based; settings: time 6.5 hrs
[9] = Toxicity in Sprague-Dawley rat assessed as ulcer index at 50 mg/kg, po administrated for 3 days and measured after 2 hrs; assay type: organism-based; settings: in vivo, 74 h
[10] = Toxicity in Sprague-Dawley rat assessed as average number of ulcers at 50 mg/kg, po administrated for 3 days and measured after 2 hrs; assay type: organism-based; settings: in vivo, 74 h
[11] = Toxicity in Sprague-Dawley rat assessed as ulcer score at 50 mg/kg, po administrated for 3 days and measured after 2 hrs; assay type: organism-based; settings: in vivo, 74 h
Mus musculus [12] = experiment: Anti-inflammatory activity in TPA-induced male Kunming mouse model of ear edema assessed as reduction in ear weight at 0.5 to 1.0 mg, TOP pre-administered via ear for 30 mins followed by TPA addition and measured after 6 hrs; assay type: functional, organism-based; settings: dose 0.5-1 mg, time 6.5 hrs
[13] = molecular target: T1, Prostaglandin G/H synthase 1 (Ovis aries, UniProt P05979); experiment: Inhibition of ovine COX-1 using arachidonic acid as substrate preincubated for 10 mins followed by substrate addition and measured after 2 mins by ELISA
T1 sequence (P05979 whole entry): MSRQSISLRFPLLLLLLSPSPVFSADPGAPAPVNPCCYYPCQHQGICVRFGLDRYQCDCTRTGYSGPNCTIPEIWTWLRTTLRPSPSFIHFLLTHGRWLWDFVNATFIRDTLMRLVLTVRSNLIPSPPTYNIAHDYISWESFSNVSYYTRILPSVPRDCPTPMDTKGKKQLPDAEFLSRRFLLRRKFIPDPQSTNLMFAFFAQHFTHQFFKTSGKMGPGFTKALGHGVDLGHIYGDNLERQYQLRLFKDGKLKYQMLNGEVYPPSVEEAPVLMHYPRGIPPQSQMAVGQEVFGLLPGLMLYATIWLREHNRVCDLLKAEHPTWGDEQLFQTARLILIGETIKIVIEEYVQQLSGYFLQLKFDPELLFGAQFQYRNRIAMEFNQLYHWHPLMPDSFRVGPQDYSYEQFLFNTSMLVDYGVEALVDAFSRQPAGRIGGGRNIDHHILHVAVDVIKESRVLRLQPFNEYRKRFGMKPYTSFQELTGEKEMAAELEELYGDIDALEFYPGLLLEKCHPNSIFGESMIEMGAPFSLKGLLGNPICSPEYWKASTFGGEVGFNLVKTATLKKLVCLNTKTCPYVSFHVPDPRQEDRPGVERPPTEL

Mus musculus [14] = experiment: Anti-inflammatory activity in TPA-induced male Kunming mouse model of ear edema assessed as reduction in ear thickness at 0.5 to 1.0 mg, TOP pre-administered via ear for 30 mins followed by TPA addition and measured after 6 hrs; assay type: functional, organism-based; settings: dose 0.5-1 mg, time 6.5 hrs
Mus musculus [15] = experiment: Anti-inflammatory activity in TPA-induced male Kunming mouse model of ear edema assessed as reduction in ear erythema pre-administered topically via ear for 30 mins followed by TPA addition and measured after 6 hrs; assay type: functional, organism-based; settings: dose 0.5-1 mg, route top, time 6.5 hrs
RAW264.7 [16] = experiment: Anti-inflammatory activity in LPS-induced mouse RAW264.7 cells assessed as downregulation of COX-2 expression at 12.5 to 50 uM preincubated for 1 hrs followed by LPS addition for 24 hrs by Western blotting analysis; assay type: functional, cell-based; settings: dose 12.5-50 µM, time 25.0 hrs
Mus musculus [17] = experiment: Anti-inflammatory activity against TPA-induced Kunming mouse ear edema model assessed as downregulation of COX-2 level in ear homogenate pre-administered topically via ear for 30 mins followed by TPA addition and measured after 6 hrs by Western blot analysis; assay type: functional, organism-based; settings: dose 0.5-1 mg, route top, time 6.5 hrs
[18] = Selectivity index, ratio of IC50 for ovine COX-1 to IC50 for human COX-2
RAW264.7 [19] = experiment: Anti-inflammatory activity in LPS-induced mouse RAW264.7 cells assessed as reduction in PGE2 production preincubated for 1 hrs followed by LPS addition for 24 hrs by ELISA; assay type: functional, cell-based; settings: dose 12.5-50 µM, time 25.0 hrs
[20] = molecular target: T2, Prostaglandin G/H synthase 2 (Homo sapiens, UniProt P35354); experiment: Inhibition of recombinant human COX-2 using arachidonic acid as substrate preincubated for 10 mins followed by substrate addition and measured after 2 mins by ELISA
T2 sequence (P35354 whole entry): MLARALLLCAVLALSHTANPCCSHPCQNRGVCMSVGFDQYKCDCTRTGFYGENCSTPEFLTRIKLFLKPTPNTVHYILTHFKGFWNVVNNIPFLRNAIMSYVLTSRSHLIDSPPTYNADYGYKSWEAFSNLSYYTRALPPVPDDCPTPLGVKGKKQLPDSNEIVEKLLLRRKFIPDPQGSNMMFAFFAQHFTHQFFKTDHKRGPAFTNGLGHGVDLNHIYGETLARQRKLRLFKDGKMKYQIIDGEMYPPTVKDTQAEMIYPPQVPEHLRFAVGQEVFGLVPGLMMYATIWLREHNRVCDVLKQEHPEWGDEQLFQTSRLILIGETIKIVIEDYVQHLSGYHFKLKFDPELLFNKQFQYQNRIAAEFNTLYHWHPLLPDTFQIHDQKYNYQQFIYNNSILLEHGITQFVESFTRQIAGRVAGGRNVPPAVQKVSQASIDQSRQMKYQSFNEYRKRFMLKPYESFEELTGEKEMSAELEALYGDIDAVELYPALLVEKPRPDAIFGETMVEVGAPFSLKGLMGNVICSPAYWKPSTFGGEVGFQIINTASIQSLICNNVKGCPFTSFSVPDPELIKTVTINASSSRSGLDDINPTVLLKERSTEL

Mus musculus [21] = experiment: Anti-inflammatory activity against TPA-induced Kunming mouse ear edema model assessed as inhibition of PGE2 production in ear homogenate pre-administered topically via ear for 30 mins followed by TPA addition and measured after 6 hrs by ELISA; assay type: functional, organism-based; settings: dose 0.5-1 mg, route top, time 6.5 hrs

Compound	IC50 at 24 h [1] [µM]	inhibition at 20 µM (RAW264.7 [2]) [%]	further results
NS(=O)(=O)c1ccc(-c2nnc(SCC(=O)O)n2-c2cccc([N+](=O)[O-])c2)cc1	> 100	13.2	–
NS(=O)(=O)c1ccc(-c2nnc(SCC(=O)O)n2-c2ccccc2C(F)(F)F)cc1	> 100	20.7	–
COc1ccccc1-n1c(SCC(=O)O)nnc1-c1ccc(S(N)(=O)=O)cc1	> 100	12.9	–
Cc1ccc(-n2c(SCC(=O)O)nnc2-c2ccc(S(N)(=O)=O)cc2)cc1	74.6	22.3	–
NS(=O)(=O)c1ccc(-c2nnc(SCC(=O)O)n2-c2ccc(F)cc2)cc1	> 100	15.4	–
NS(=O)(=O)c1ccc(-c2nnc(SCC(=O)O)n2-c2ccccc2Cl)cc1	> 100	20.9	–
NS(=O)(=O)c1ccc(-c2nnc(SCC(=O)O)n2-c2cccc(F)c2)cc1	> 100	15.1	–
Cc1ccc(-c2cc(C(F)(F)F)nn2-c2ccc(S(N)(=O)=O)cc2)cc1 [CELECOXIB]	–	38.1	Activity (Mus musculus [3]): Active; Activity [4]: 0.8; Activity [5]: 1.5; Activity (Mus musculus [6]): Active; UI [7]: 6.3; Activity (Mus musculus [8]): Active
NS(=O)(=O)c1ccc(-c2nnc(SCC(=O)O)n2-c2cccc(I)c2)cc1	> 100	22.5	–
COc1ccc2c(c1)c(CC(=O)O)c(C)n2C(=O)c1ccc(Cl)cc1 [INDOMETHACIN]	–	–	UI [9]: 28.78; Activity [10]: 3.18; Activity [11]: 15.6
NS(=O)(=O)c1ccc(-c2nnc(SCC(=O)O)n2-c2ccc(I)cc2)cc1	> 100	30.8	Activity (Mus musculus [12]): Active; IC50 [13]: 16 µM; Activity [4]: 0.6; Activity (Mus musculus [14]): Active; Activity (Mus musculus [15]): Dose-dependent-effect; Activity [5]: 0.6; Activity (RAW264.7 [16]): Active; Activity (Mus musculus [17]): Dose-dependent-effect; UI [7]: 5.2; Ratio IC50 [18]: 296; Activity (RAW264.7 [19]): Dose-dependent-effect; IC50 [20]: 0.054 µM; Activity (Mus musculus [21]): Dose-dependent-effect
NS(=O)(=O)c1ccc(-c2nnc(SCC(=O)O)n2-c2ccccc2Br)cc1	> 100	14	–
NS(=O)(=O)c1ccc(-c2nnc(SCC(=O)O)n2-c2ccc(Br)cc2)cc1	> 100	21	–
